In the supplement of paper PMC10307832:

What was measured:
Experiment in all cases: relative viability (nuclei count vs DMSO), 5 days (fraction); higher = more cells survive
[1] = compound: CC1=NN=C(O1)C2=NN=C(C=C2)N3CCC(CC3)OC4=C(C=CC(=C4)F)Cl + CC1(C)CCC(c2ccc(Cl)cc2)=C(CN2CCN(c3ccc(C(=O)NS(=O)(=O)c4ccc(N[C@H](CCN5CCOCC5)CSc5ccccc5)c(S(=O)(=O)C(F)(F)F)c4)cc3)CC2)C1 [Navitoclax] (partner 0.5 µM)
Outline: (§1)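 Relative viability equals treated-well nuclei counts divided by vehicle-well nuclei counts. Counts came from 4× images of lung cancer cell lines grown in 1536-well plates for 5 days after pin-tool dosing on the day after seeding. Dosing used one drug alone or a fixed anchor-drug dose plus five library-drug doses (not always all listed) in √10 steps, and values are medians of duplicate plates.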

Tosedostat + Decitabine = compound: CC(C)C[C@@H](C(=O)N[C@H](C(=O)OC1CCCC1)c1ccccc1)[C@H](O)C(=O)NO [Tosedostat] + Nc1ncn([C@H]2C[C@H](O)[C@@H](CO)O2)c(=O)n1 [Decitabine] (partner 2 µM)
Outline: as §1

[2] = compound: CC1=NN=C(O1)C2=NN=C(C=C2)N3CCC(CC3)OC4=C(C=CC(=C4)F)Cl + Nc1ncn([C@H]2C[C@H](O)[C@@H](CO)O2)c(=O)n1 [Decitabine] (partner 2 µM)
Outline: as §1

Tosedostat + Foretinib = compound: CC(C)C[C@@H](C(=O)N[C@H](C(=O)OC1CCCC1)c1ccccc1)[C@H](O)C(=O)NO [Tosedostat] + COc1cc2c(Oc3ccc(NC(=O)C4(C(=O)Nc5ccc(F)cc5)CC4)cc3F)ccnc2cc1OCCCN1CCOCC1 [Foretinib] (partner 0.25 µM)
Outline: as §1

Row | Cell Line | relative viability ([1]; first compound 0.253 µM) | relative viability ([1]; first compound 0.8 µM) | relative viability ([1]; first compound 2.53 µM) | relative viability ([1]; first compound 8 µM) | relative viability (Tosedostat + Decitabine; first compound 0.02 µM) | relative viability (Tosedostat + Decitabine; first compound 0.06325 µM) | relative viability (Tosedostat + Decitabine; first compound 0.2 µM) | relative viability (Tosedostat + Decitabine; first compound 0.6325 µM) | relative viability (Tosedostat + Decitabine; first compound 2 µM) | relative viability ([2]; first compound 0.253 µM) | relative viability ([2]; first compound 0.8 µM) | relative viability ([2]; first compound 2.53 µM) | relative viability ([2]; first compound 8 µM) | relative viability (Tosedostat + Foretinib; first compound 0.02 µM) | relative viability (Tosedostat + Foretinib; first compound 0.06325 µM) | relative viability (Tosedostat + Foretinib; first compound 0.2 µM) | relative viability (Tosedostat + Foretinib; first compound 0.6325 µM) | relative viability (Tosedostat + Foretinib; first compound 2 µM)
1 | 201T | 0.542 | 0.627 | 0.53 | 0.529 | 0.835 | 0.894 | 0.879 | 0.891 | 0.846 | 0.459 | 0.647 | 0.445 | 0.43 | 1.11 | 1.24 | 1.22 | 1.32 | 1.17
2 | A549 | 0.778 | 0.652 | 0.599 | 0.587 | 0.264 | 0.337 | 0.24 | 0.193 | 0.292 | 0.223 | 0.218 | 0.222 | 0.208 | 0.925 | 0.967 | 0.998 | 0.974 | 0.652
3 | A-427 | 0.86 | – | 0.771 | 0.631 | 0.562 | 0.594 | 0.629 | 0.506 | 0.55 | 0.55 | 0.576 | 0.53 | 0.569 | 0.979 | 1 | 1.07 | 1.12 | 0.877
4 | ABC-1 | – | – | – | – | 1.17 | 1.13 | 1.27 | 1.19 | 1.05 | 0.49 | 0.539 | 0.406 | 0.423 | 1.23 | 0.971 | 1.02 | 1.18 | 1.11
5 | BEN | 0.0638 | 0.0498 | 0.058 | 0.141 | 0.79 | 0.761 | 0.676 | 0.734 | 0.665 | 0.75 | 0.775 | 0.713 | 0.668 | 0.713 | 0.825 | 0.799 | 0.878 | 0.846
6 | CAL-12T | 1 | 1.09 | 0.834 | 1 | – | – | – | – | – | – | – | – | – | 1.15 | 1.04 | 1.22 | 1.11 | 1.05
7 | COR-L23 | 0.815 | 0.729 | 0.789 | 0.629 | 0.465 | 0.411 | 0.393 | 0.405 | 0.37 | 0.383 | 0.409 | 0.396 | 0.409 | 1.04 | 1.03 | 0.975 | 1.07 | 1.06
8 | COR-L 105 | 0.686 | 0.846 | 0.622 | 0.727 | 0.747 | 0.622 | 0.681 | 0.537 | 0.596 | 0.676 | 0.592 | 0.667 | 0.638 | 1.3 | 0.8 | 1.06 | 0.753 | 0.69
9 | Calu-6 | 0.667 | 0.673 | 0.651 | 0.612 | – | – | – | – | – | – | – | – | – | 1.04 | 0.858 | 0.826 | 0.638 | 0.559
10 | ChaGo-K-1 | 0.678 | 0.624 | 0.632 | 0.622 | 0.487 | 0.526 | 0.543 | 0.463 | 0.419 | 0.392 | 0.465 | 0.391 | 0.374 | 0.911 | 0.934 | 0.976 | 0.833 | 0.709
11 | EBC-1 | 0.352 | 0.375 | 0.26 | 0.276 | – | – | – | – | – | – | – | – | – | 0.112 | 0.0828 | 0.0952 | 0.115 | 0.117
12 | EKVX | 0.451 | 0.368 | 0.429 | 0.423 | 0.37 | 0.34 | 0.292 | 0.313 | 0.332 | 0.292 | 0.261 | 0.309 | 0.225 | 0.649 | 0.759 | 0.795 | 0.736 | 0.729
13 | EMC-BAC-2 | 0.998 | 0.909 | 1.03 | 0.936 | 1.04 | 0.964 | 0.971 | 0.877 | 0.865 | 0.903 | 0.837 | 0.957 | 0.794 | 0.954 | 1.02 | 0.999 | 1.1 | 0.838
14 | EPLC-272H | 0.935 | – | 1.11 | 1.01 | 0.364 | 0.37 | 0.363 | 0.328 | 0.254 | 0.361 | 0.366 | 0.4 | 0.374 | 0.658 | 0.512 | 0.58 | 0.355 | 0.185
15 | H3255 | 0.494 | 0.422 | 0.524 | 0.39 | 0.595 | 0.559 | 0.553 | 0.531 | 0.645 | 0.484 | 0.525 | 0.464 | 0.564 | 0.871 | 0.902 | 1.02 | 0.709 | 0.796
16 | HARA | 0.451 | 0.392 | 0.393 | 0.352 | 0.583 | 0.583 | 0.427 | 0.442 | 0.457 | 0.414 | 0.384 | 0.357 | 0.319 | 0.941 | 0.914 | 0.852 | 0.813 | 0.787
17 | HCC-15 | 0.477 | 0.445 | 0.455 | 0.491 | 0.675 | 0.649 | 0.591 | 0.446 | 0.433 | 0.497 | 0.5 | 0.493 | 0.457 | 1.08 | 0.995 | 1.02 | 0.96 | 0.849
18 | HCC-44 | 0.424 | 0.476 | 0.477 | 0.447 | 0.941 | 0.919 | 0.943 | 0.865 | 0.747 | 0.44 | 0.413 | 0.436 | 0.425 | – | – | – | – | –
19 | HCC-78 | 0.436 | 0.43 | 0.544 | 0.525 | 0.634 | 0.706 | 0.732 | 0.75 | 0.658 | 0.491 | 0.43 | 0.397 | 0.509 | 0.518 | 0.59 | 0.545 | 0.662 | 0.684
20 | HCC-366 | 0.445 | 0.387 | 0.423 | 0.364 | 0.332 | 0.369 | 0.397 | 0.311 | 0.359 | 0.242 | 0.207 | 0.292 | 0.252 | 0.913 | 0.948 | 0.972 | 0.927 | 0.935
